According to patent publication EP0838474B1, “PEPTIDE THAT INHIBITS BLOOD TRIGLYCERIDE LEVEL RISE AND BLOOD TRIGLYCERIDE LEVEL RISE INHIBITOR CONTAINING SAID PEPTIDE AS ACTIVE INGREDIENT” (MG PHARMA INC., priority 1995, dated 1997):
Residues, ends and D or L forms follow the SMILES beside them. No end group written: not given here.

Tested on: TG level in blood
Assay: Serum TG elevation inhibiting action at the time of in vivo lipid loading (olive oil)
Design: species or system albino mice
Settings: for Ratio of Increase in Blood TG Levels (%): blood collected after 3 hours; for ID^50: Dose (mg/mouse) exhibiting 50% inhibition: oral, with 250 mg olive oil, blood TG after 3 hours; for Specific Activity: relative to the proteolysate (= 1)
Experimental: Serum TG elevation inhibiting action at the time of in vivo lipid loading was examined on the three peptides of the invention inhibiting elevations of TG levels in blood (i.e., the peptide having the amino acid sequence of SEQ ID NO: 1 and the peptides Val-Thr-Leu and Val-Tyr-Pro synthesized by the method described in Example 4). Healthy albino mice (5-10 weeks old; body weight: about 20-30 g) were used in this experiment. To each mouse, 250 mg of olive oil and an aqueous solution of the above peptide were administered orally. Three hours thereafter, blood was collected under anesthesia with Nembutal. After separation of the blood, the TG level in blood was determined.

Compound | Ratio of Increase in Blood TG Levels (%) (dose 1x10^-3 mg/mouse oral with 250 mg olive oil) | Ratio of Increase in Blood TG Levels (%) (dose 1x10^-4 mg/mouse oral with 250 mg olive oil) | Ratio of Increase in Blood TG Levels (%) (dose 4x10^-4 mg/mouse oral with 250 mg olive oil) | Ratio of Increase in Blood TG Levels (%) (dose 4x10^-5 mg/mouse oral with 250 mg olive oil) | ID^50: Dose (mg/mouse) exhibiting 50% inhibition | Specific Activity | Ratio of Increase in Blood TG Levels (%) (dose 0.1 mg/mouse oral with 250 mg olive oil) | Ratio of Increase in Blood TG Levels (%) (dose 0.2 mg/mouse oral with 250 mg olive oil) | Ratio of Increase in Blood TG Levels (%) (dose 1.0 mg/mouse oral with 250 mg olive oil) | Ratio of Increase in Blood TG Levels (%) (dose 2.5 mg/mouse oral with 250 mg olive oil) | Ratio of Increase in Blood TG Levels (%) (dose 5.0 mg/mouse oral with 250 mg olive oil)
LVVYPWT [SEQ ID NO: 1, Leu-Val-Val-Tyr-Pro-Trp-Thr] | 65% | 33% | 33% | 14% | 5.6x10^-4 mg/mouse | 50000 | – | – | – | – | –
CC(C)C[C@H](NC(=O)[C@@H](NC(=O)[C@@H](N)C(C)C)[C@@H](C)O)C(=O)O [Val-Thr-Leu, H-Val-Thr-Leu-OH] (H-Val-Thr-Leu-OH) | – | – | – | – | 0.43 mg/mouse | 65 | 30% | 33% | 73% | 76% | 79%
